{"source": "paper PMC10702058", "about": "“Phase I dose escalation study and pilot efficacy analysis of LXI-15029, a novel mTOR dual inhibitor, in Chinese subjects with advanced malignant solid tumors” (BMC Cancer, 2023)", "assay": "Phase I dose escalation: safety and tolerability (DLT, MTD, adverse events, NCI-CTCAE 4.03)"}
{"smiles": "CNC(=O)c1cccc(-c2ccc3c(N4C5CCC4COC5)nc(N4CCOC[C@@H]4C)nc3n2)c1", "note": "[LXI-15029]", "values": [{"measurement": "Patients with any TEAE", "setting": "10 mg BID (n = 3)", "result": "3 (100.0) n (%)"}, {"measurement": "Patients with any TEAE, maximum CTCAE Grade 1", "setting": "10 mg BID (n = 3)", "result": "3 (100.0) n (%)"}, {"measurement": "Patients with any TEAE, maximum CTCAE Grade 2", "setting": "10 mg BID (n = 3)", "result": "0 n (%)"}, {"measurement": "Patients with any TEAE, maximum CTCAE Grade 3", "setting": "10 mg BID (n = 3)", "result": "0 n (%)"}, {"measurement": "≥ 10% TRAE: ALT increased", "setting": "10 mg BID (n = 3)", "result": "0 n (%)"}, {"measurement": "≥ 10% TRAE: AST increased", "setting": "10 mg BID (n = 3)", "result": "0 n (%)"}, {"measurement": "≥ 10% TRAE: Decreased appetite", "setting": "10 mg BID (n = 3)", "result": "1 (33.3) n (%)"}, {"measurement": "≥ 10% TRAE: Diarrhea", "setting": "10 mg BID (n = 3)", "result": "0 n (%)"}, {"measurement": "≥ 10% TRAE: ECG QT prolonged", "setting": "10 mg BID (n = 3)", "result": "0 n (%)"}, {"measurement": "≥ 10% TRAE: Fatigue", "setting": "10 mg BID (n = 3)", "result": "0 n (%)"}, {"measurement": "≥ 10% TRAE: GGT increased", "setting": "10 mg BID (n = 3)", "result": "0 n (%)"}, {"measurement": "≥ 10% TRAE: Hypercholesterolemia", "setting": "10 mg BID (n = 3)", "result": "0 n (%)"}, {"measurement": "≥ 10% TRAE: Hypertriglyceridemia", "setting": "10 mg BID (n = 3)", "result": "0 n (%)"}, {"measurement": "≥ 10% TRAE: LDL increased", "setting": "10 mg BID (n = 3)", "result": "0 n (%)"}, {"measurement": "≥ 10% TRAE: Leukocytopenia", "setting": "10 mg BID (n = 3)", "result": "0 n (%)"}, {"measurement": "≥ 10% TRAE: Neutropenia", "setting": "10 mg BID (n = 3)", "result": "0 n (%)"}, {"measurement": "≥ 10% TRAE: Sinus bradycardia", "setting": "10 mg BID (n = 3)", "result": "0 n (%)"}, {"measurement": "Patients with any TEAE", "setting": "20 mg BID (n = 3)", "result": "3 (100.0) n (%)"}, {"measurement": "Patients with any TEAE, maximum CTCAE Grade 1", "setting": "20 mg BID (n = 3)", "result": "2 (66.7) n (%)"}, {"measurement": "Patients with any TEAE, maximum CTCAE Grade 2", "setting": "20 mg BID (n = 3)", "result": "1 (33.3) n (%)"}, {"measurement": "Patients with any TEAE, maximum CTCAE Grade 3", "setting": "20 mg BID (n = 3)", "result": "0 n (%)"}, {"measurement": "≥ 10% TRAE: ALT increased", "setting": "20 mg BID (n = 3)", "result": "1 (33.3) n (%)"}, {"measurement": "≥ 10% TRAE: AST increased", "setting": "20 mg BID (n = 3)", "result": "0 n (%)"}, {"measurement": "≥ 10% TRAE: Decreased appetite", "setting": "20 mg BID (n = 3)", "result": "0 n (%)"}, {"measurement": "≥ 10% TRAE: Diarrhea", "setting": "20 mg BID (n = 3)", "result": "0 n (%)"}, {"measurement": "≥ 10% TRAE: ECG QT prolonged", "setting": "20 mg BID (n = 3)", "result": "0 n (%)"}, {"measurement": "≥ 10% TRAE: Fatigue", "setting": "20 mg BID (n = 3)", "result": "1 (33.3) n (%)"}, {"measurement": "≥ 10% TRAE: GGT increased", "setting": "20 mg BID (n = 3)", "result": "1 (33.3) n (%)"}, {"measurement": "≥ 10% TRAE: Hypercholesterolemia", "setting": "20 mg BID (n = 3)", "result": "0 n (%)"}, {"measurement": "≥ 10% TRAE: Hypertriglyceridemia", "setting": "20 mg BID (n = 3)", "result": "1 (33.3) n (%)"}, {"measurement": "≥ 10% TRAE: LDL increased", "setting": "20 mg BID (n = 3)", "result": "1 (33.3) n (%)"}, {"measurement": "≥ 10% TRAE: Leukocytopenia", "setting": "20 mg BID (n = 3)", "result": "1 (33.3) n (%)"}, {"measurement": "≥ 10% TRAE: Neutropenia", "setting": "20 mg BID (n = 3)", "result": "0 n (%)"}, {"measurement": "≥ 10% TRAE: Sinus bradycardia", "setting": "20 mg BID (n = 3)", "result": "1 (33.3) n (%)"}, {"measurement": "Patients with any TEAE", "setting": "40 mg BID (n = 3)", "result": "2 (66.7) n (%)"}, {"measurement": "Patients with any TEAE, maximum CTCAE Grade 1", "setting": "40 mg BID (n = 3)", "result": "1 (33.3) n (%)"}, {"measurement": "Patients with any TEAE, maximum CTCAE Grade 2", "setting": "40 mg BID (n = 3)", "result": "1 (33.3) n (%)"}, {"measurement": "Patients with any TEAE, maximum CTCAE Grade 3", "setting": "40 mg BID (n = 3)", "result": "0 n (%)"}, {"measurement": "≥ 10% TRAE: ALT increased", "setting": "40 mg BID (n = 3)", "result": "0 n (%)"}, {"measurement": "≥ 10% TRAE: AST increased", "setting": "40 mg BID (n = 3)", "result": "0 n (%)"}, {"measurement": "≥ 10% TRAE: Decreased appetite", "setting": "40 mg BID (n = 3)", "result": "0 n (%)"}, {"measurement": "≥ 10% TRAE: Diarrhea", "setting": "40 mg BID (n = 3)", "result": "0 n (%)"}, {"measurement": "≥ 10% TRAE: ECG QT prolonged", "setting": "40 mg BID (n = 3)", "result": "0 n (%)"}, {"measurement": "≥ 10% TRAE: Fatigue", "setting": "40 mg BID (n = 3)", "result": "0 n (%)"}, {"measurement": "≥ 10% TRAE: GGT increased", "setting": "40 mg BID (n = 3)", "result": "0 n (%)"}, {"measurement": "≥ 10% TRAE: Hypercholesterolemia", "setting": "40 mg BID (n = 3)", "result": "0 n (%)"}, {"measurement": "≥ 10% TRAE: Hypertriglyceridemia", "setting": "40 mg BID (n = 3)", "result": "1 (33.3) n (%)"}, {"measurement": "≥ 10% TRAE: LDL increased", "setting": "40 mg BID (n = 3)", "result": "1 (33.3) n (%)"}, {"measurement": "≥ 10% TRAE: Leukocytopenia", "setting": "40 mg BID (n = 3)", "result": "2 (66.7) n (%)"}, {"measurement": "≥ 10% TRAE: Neutropenia", "setting": "40 mg BID (n = 3)", "result": "0 n (%)"}, {"measurement": "≥ 10% TRAE: Sinus bradycardia", "setting": "40 mg BID (n = 3)", "result": "0 n (%)"}, {"measurement": "Patients with any TEAE", "setting": "60 mg BID (n = 4)", "result": "3 (75.0) n (%)"}, {"measurement": "Patients with any TEAE, maximum CTCAE Grade 1", "setting": "60 mg BID (n = 4)", "result": "1 (25.0) n (%)"}, {"measurement": "Patients with any TEAE, maximum CTCAE Grade 2", "setting": "60 mg BID (n = 4)", "result": "2 (50.0) n (%)"}, {"measurement": "Patients with any TEAE, maximum CTCAE Grade 3", "setting": "60 mg BID (n = 4)", "result": "0 n (%)"}, {"measurement": "≥ 10% TRAE: ALT increased", "setting": "60 mg BID (n = 4)", "result": "1 (25.0) n (%)"}, {"measurement": "≥ 10% TRAE: AST increased", "setting": "60 mg BID (n = 4)", "result": "1 (25.0) n (%)"}, {"measurement": "≥ 10% TRAE: Decreased appetite", "setting": "60 mg BID (n = 4)", "result": "0 n (%)"}, {"measurement": "≥ 10% TRAE: Diarrhea", "setting": "60 mg BID (n = 4)", "result": "2 (50.0) n (%)"}, {"measurement": "≥ 10% TRAE: ECG QT prolonged", "setting": "60 mg BID (n = 4)", "result": "2 (50.0) n (%)"}, {"measurement": "≥ 10% TRAE: Fatigue", "setting": "60 mg BID (n = 4)", "result": "1 (25.0) n (%)"}, {"measurement": "≥ 10% TRAE: GGT increased", "setting": "60 mg BID (n = 4)", "result": "1 (25.0) n (%)"}, {"measurement": "≥ 10% TRAE: Hypercholesterolemia", "setting": "60 mg BID (n = 4)", "result": "3 (75.0) n (%)"}, {"measurement": "≥ 10% TRAE: Hypertriglyceridemia", "setting": "60 mg BID (n = 4)", "result": "2 (50.0) n (%)"}, {"measurement": "≥ 10% TRAE: LDL increased", "setting": "60 mg BID (n = 4)", "result": "1 (25.0) n (%)"}, {"measurement": "≥ 10% TRAE: Leukocytopenia", "setting": "60 mg BID (n = 4)", "result": "1 (25.0) n (%)"}, {"measurement": "≥ 10% TRAE: Neutropenia", "setting": "60 mg BID (n = 4)", "result": "1 (25.0) n (%)"}, {"measurement": "≥ 10% TRAE: Sinus bradycardia", "setting": "60 mg BID (n = 4)", "result": "1 (25.0) n (%)"}, {"measurement": "Patients with any TEAE", "setting": "80 mg BID (n = 4)", "result": "4 (100.0) n (%)"}, {"measurement": "Patients with any TEAE, maximum CTCAE Grade 1", "setting": "80 mg BID (n = 4)", "result": "3 (75.0) n (%)"}, {"measurement": "Patients with any TEAE, maximum CTCAE Grade 2", "setting": "80 mg BID (n = 4)", "result": "1 (25.0) n (%)"}, {"measurement": "Patients with any TEAE, maximum CTCAE Grade 3", "setting": "80 mg BID (n = 4)", "result": "0 n (%)"}, {"measurement": "≥ 10% TRAE: ALT increased", "setting": "80 mg BID (n = 4)", "result": "0 n (%)"}, {"measurement": "≥ 10% TRAE: AST increased", "setting": "80 mg BID (n = 4)", "result": "0 n (%)"}, {"measurement": "≥ 10% TRAE: Decreased appetite", "setting": "80 mg BID (n = 4)", "result": "1 (25.0) n (%)"}, {"measurement": "≥ 10% TRAE: Diarrhea", "setting": "80 mg BID (n = 4)", "result": "2 (50.0) n (%)"}, {"measurement": "≥ 10% TRAE: ECG QT prolonged", "setting": "80 mg BID (n = 4)", "result": "1 (25.0) n (%)"}, {"measurement": "≥ 10% TRAE: Fatigue", "setting": "80 mg BID (n = 4)", "result": "2 (50.0) n (%)"}, {"measurement": "≥ 10% TRAE: GGT increased", "setting": "80 mg BID (n = 4)", "result": "0 n (%)"}]}
